Data reported in US10004687B2 (priority 2005, dated 2018).
In brackets after ≈: the same amount, converted by molar mass. Several values for one entry are separate records, joined by “and”; a condition that tells them apart may be missing. Equal values may be shown once. Read-outs that look alike come from different tables or passages of the source.

Experiments:
[1] = test system: ASPC-1 pancreatic carcinoma cells; assay: MTT proliferation/survival assay, 72 hours incubation; format: cell-based; conditions: Homo sapiens, ASPC1, ASPC-1, MTT assay
Protocol: (§1) Controls were exposed to 0.1% v/v DMSO. Proliferation and survival of the pancreatic cells were assessed by MTT assay, a standard colorimetric assay used to measure cell survival and proliferation (Mosman, 1983). MTT (3-[4,5-cimethylthiazol-2-yl]-2,5-diphenyl tetrazolium bromide) is cleaved by living cells to yield a dark blue formazan product. The color is quantitated by spectrophotometer and reflects cellular proliferation and survival. […] The control for each assay was exposed to 0.1% v/v DMSO.
(§2) MTT proliferation/survival assay was performed after 72 hours of incubation.
(§3) FIGS. 5-10 show graphs of the results of the assays using Bxpc-3, Capan-1, Capan-2, HS766-1 and ASPC-1 cell lines, respectively. […] The MTT assay was performed after pancreatic cells were exposed for 72 hours to each compound at concentrations ranging from 0 to 5 μg/ml.

[2] = test system: Bxpc-3 pancreatic carcinoma cells; assay: as above; format: cell-based; conditions: Homo sapiens
Protocol: as §1, §2, §3

[3] = test system: Capan-1 pancreatic carcinoma cells; assay: as above; format: cell-based; conditions: Homo sapiens
Protocol: as §1, §2, §3

[4] = test system: Capan-2 pancreatic carcinoma cells; assay: as above; format: cell-based; conditions: Homo sapiens, Capan-2, 72 h, CAPAN-2, MTT assay
Protocol: as §1, §2, §3

[5] = test system: HS766-T pancreatic carcinoma cells; assay: as above; format: cell-based; conditions: Hs766T
Protocol: as §1, §2, §3

[6] = test system: pancreatic Bxpc-3, Capan-1, Capan-2, HS766-T and ASPC-1 cells; assay: MTT proliferation/survival assay, statements on all five pancreatic lines; format: cell-based; conditions: seventy-two hours of exposure
Protocol: as §1, §2, §3

[7] = test system: pancreatic BxPC-3 or HS766-T cells; assay: Apoptosis assay, Annexin-V/Proopidium iodide staining (FACS analysis); format: cell-based; conditions: concentrations equal to IC50 or IC90 of liposomal curcumin, 72 hours
Protocol: Apoptosis assay was performed using either pancreatic BxPC-3 or HS766-T cells. […] After incubation for 72 hours, the cells were assayed using Annexin-V/Proopidium iodide staining (FACS analysis) to determine how much apoptosis had occurred.

[8] = animal studies to date; cited from earlier work
[9] = cited from earlier work

## COc1cc(C=CC(=O)CC(=O)C=Cc2ccc(O)c(OC)c2)ccc1O [free curcumin, (E,E)-1,7-bis(4-hydroxy-3-methoxyphenyl)-1,6-heptadiene-3,5,-dione]
[1]
  IC50: 4 µg/mL and 10.8 µM
  IC90: 10 µg/mL and 27 µM
[2]; read-out: 50% inhibitory concentration (IC50), BxPC-3 cells, approximate
  IC50: ~5 µM
[2]; BXPC-3, MTT assay, 72 hours incubation, read-out: IC50
  IC50: 2 µg/mL and 5.4 µM
[2]; BXPC-3, MTT assay, 72 hours incubation, read-out: IC90
  IC90: 5 µg/mL and 13.5 µM
[2]; BxPC-3 cells, approximate, read-out: 90% inhibitory concentration (IC90)
  IC90: ~14 µM
[3]; read-out: 50% inhibitory concentration (IC50), Capan-1 cells, approximate
  IC50: ~5 µM
[3]; CAPAN-1, MTT assay, 72 hours incubation, read-out: IC50
  IC50: 2 µg/mL and 5.4 µM
[3]; CAPAN-1, MTT assay, 72 hours incubation, read-out: IC90
  IC90: 5 µg/mL and 13.5 µM
[3]; Capan-1 cells, approximate, read-out: 90% inhibitory concentration (IC90)
  IC90: ~14 µM
[4]
  IC50: 17 µg/mL (≈ 46.1 µM)
  IC90: 35 µg/mL (≈ 95 µM)
[5]
  IC50: 2.6 µg/mL and 7 µM
  IC90: 8 µg/mL and 21.6 µM
[6]
  pancreatic cell growth (MTT): inhibited pancreatic cell growth of all five lines tested in a concentration-dependent manner
[7]
  apoptosis after treatment: dose-related apoptosis
[8]
  LD50: never reached an LD50
[9]
  solubility in ethanol, alkalis, ketones, acetic acid and chloroform: soluble
[9]; water
  solubility in water: insoluble
